# Experimental data as given in patent publication US5045548A, “Quinolyl methoxy compounds and their use as antiasthmatic agents” (Fujisawa Pharmaceutical Company, Ltd., priority 1987, dated 1991).
# Structures can show the parent of a compound that is named as a salt.
# System: SRS-A (Slow Reacting Substance of Anaphylaxis) synthesis in rat polymorpholeukocyte (PMN)
# Assay: Inhibitory Activity of SRS-A synthesis in rat polymorpholeukocyte (PMN) using the calcium ionophore A23187 (i-LTC4 by radioimmunoassay)
# Type: cell-based, rat (male Sprague-Dawley)
# Settings: 10 μM A23187, 15 min, 37° C.
# Procedure: Test I: Inhibitory Activity of SRS-A (Slow Reacting Substance of Anaphylaxis) synthesis in rat polymorpholeukocyte (PMN) of using the calcium ionophore Male Sprague-Dawley rats weighing 250-300 g were anesthetized with ether and each was injected intraperitoneally with 20 ml of 0.1% clycogen (from Oyster). After 20 hours the rats were sacrificed and PMN were recovered in rinse of the peritoneal cavity with 10 ml Dulbeccos PBS (components in g/L: CaCl2 0.1, KH2 PO4 0.2, MgCl2.6H2 O 0.1, NaCl 8.0, Na2 HPO4.7H2 O 2.16; pH7.4). These rinses were filtered through nylon wool filter and centrifuged for 5 min at 1000 xg. The pellet was suspended in Dulbeccos PBS and centrifuged for 5 min at 1000 xg. The pellet was resuspended in Dulbeccos PBS and adjusted the cell concentration to 10^7 cells/ml with Dulbeccos PBS. Samples were dissolved in ethanol and dispersed in Dulbeccos PBS to give a concentration of 10^-10 -10^-5 M Antibiotic A23187; calcium ionophor ([…] Diagnostics) (hereinafter referred to A23187) in DMSO(10mM) was diluted with Dulbeccos PBS to give the concentration of 1 mM. Aliquots of the cell suspension (1×10^7 cells/ml, 0.98 ml) were equilibrated for 30 min at 37° C. Solution of sample(10 μl) was added and incubated for 15 min at 37° C. before the addition of 10 μl of A23187 solution. Thus the final incubation volume of 1 ml contained approximately 1×10^7 cells, 10^-10 -10^-5 M samples and 10 μM A23187. Incubation with A23187 were continued for 15 min at 37° C. The reactions were terminated by setting the assay tubes in ice bath to chill as rapidly as possible to 4° C. The test tubes were centrifuged at 1500 xg for 5 min at 4° C. and decanted the supernatants into the tubes and kept cold prior to assaying. The concentration of i-LTC4 in the cell-free supernatants from the incubations were determined by specific radioimmunoassay. The mean values of i-LTC4 (these incubations were carried out in duplicate) of each sample were calculated and the effect of samples on the synthesis of the leukotrienes was presented as a percentage of the value in the absence of samples.
SMILES,"IC50 (Rattus norvegicus, 0.25 h)",IC50 (hydrochloride)
"CCCCC1(CCCC)CCc2c(OCc3ccc4ccccc4n3)cccc2C1O (single isomer, unassigned; (+)) [Example 41, (+)-2,2-dibutyl-5-(2-quinolylmethoxy)-1,2,3,4-tetrahydro-1-naphthol hydrochloride]",,5.6 nM
"CCCCC1(CCCC)Cc2c(OCc3ccc4ccccc4n3)cccc2C1=O [Example 5, 2,2-Dibutyl-4-(2-quinolylmethoxy)-1-indanone hydrochloride]",280 nM,
"CCCCC1(CCCC)CCc2c(OCc3ccc4ccccc4n3)cccc2C1O (stereo not drawn) [Example 6, 2,2-dibutyl-5-(2-quinolylmethoxy)-1,2,3,4-tetrahydro-1-naphthol]",8.7 nM,
"CCCCC1(CCCC)CCc2c(OCc3ccccn3)cccc2C1O (stereo not drawn) [Example 7, 2,2-dibutyl-5-(2-pyridylmethoxy)-1,2,3,4-tetrahydro-1-naphthol]",81 nM,
"CCCCC1(CCCC)CCc2c(OCc3ccccc3C(N)=O)cccc2C1O (stereo not drawn) [Example 8, 2,2-dibutyl-5-(2-carbamoylbenzyloxy)-1,2,3,4-tetrahydro-1-naphthol]",160 nM,
"CCCCC1(CCCC)CCc2c(OCc3nc4ccccc4s3)cccc2C1O (stereo not drawn) [Example 11, 2,2-Dibutyl-5-(2-benzothiazolylmethoxy)-1,2,3,4-tetrahydro-1-naphthol]",50 nM,
"CCCCC1(CCCC)CCc2c(OCc3ccncc3)cccc2C1O (stereo not drawn) [Example 12, 2,2-Dibutyl-5-(4-pyridylmethoxy)-1,2,3,4-tetrahydro-1-naphthol]",120 nM,
"CCCC1(CCC)CCc2c(OCc3ccc4ccccc4n3)cccc2C1O (stereo not drawn) [Example 13, 2,2-Dipropyl-5-(2-quinolylmethoxy)-1,2,3,4-tetrahydro-1-naphthol]",15 nM,
"CCCCCC1(CCCCC)CCc2c(OCc3ccc4ccccc4n3)cccc2C1O (stereo not drawn) [Example 14, 2,2-Dipentyl-5-(2-quinolylmethoxy)-1,2,3,4-tetrahydro-1-naphthol]",42 nM,
"CCCCC1(CCCC)Cc2c(OCc3ccc4ccccc4n3)cccc2C1O (stereo not drawn) [Example 15, 2,2-Dibutyl-4-(2-quinolylmethoxy)-1-indanol]",210 nM,
"CCCCC1(CCCC)CCc2c(OCc3ccc(C(N)=O)cc3)cccc2C1O (stereo not drawn) [Example 16, 2,2-Dibutyl-5-(4-carbamoylbenzyloxy)-1,2,3,4-tetrahydro-1-naphthol]",370 nM,

# Further lines, with some results ahead:
"IC50 (Rattus norvegicus, 0.25 h)",SMILES,IC50 (hydrochloride)
1900 nM,"CCCCC1CCc2c(OCc3ccc4ccccc4n3)cccc2C1=O (stereo not drawn) [Example 17, 2-Butyl-3,4-dihydro-5-(2-quinolylmethoxy)-1(2H)-naphthalenone]",
1100 nM,"CCCCC1(CCCC)CCc2ccc(OCc3ccc4ccccc4n3)cc2C1=O [Example 19, 2,2-Dibutyl-3,4-dihydro-7-(2-quinolylmethoxy)-1(2H)-naphthalenone]",
83 nM,"CCCCC1CCc2c(OCc3ccc4ccccc4n3)cccc2C1O (stereo not drawn) [Example 20, 2-Butyl-5-(2-quinolylmethoxy)-1,2,3,4-tetrahydro-1-naphthol]",
430 nM,"CCCCC1CCc2ccc(OCc3ccc4ccccc4n3)cc2C1O (stereo not drawn) [Example 21, 2-butyl-7-(2-quinolylmethoxy)-1,2,3,4-tetrahydro-1-naphthol hydrochloride]",
860 nM,"CCCCC1(CCCC)CCc2ccc(OCc3ccc4ccccc4n3)cc2C1O (stereo not drawn) [Example 22, 2,2-Dibutyl-7-(2-quinolylmethoxy)-1,2,3,4-tetrahydro-1-naphthol hydrochloride]",
1100 nM,"CCCCC1CCc2ccc(OCc3ccc4ccccc4n3)cc2C1=O (stereo not drawn) [Example 23, 2-Butyl-3,4-dihydro-7-(2-quinolylmethoxy)-1(2H)-naphthalenone hydrochloride]",
620 nM,"CCCCC1(CCCC)CCc2c(OCc3ccc4ccccc4n3)cccc2C1=O [Example 25, 2,2-Dibutyl-3,4-dihydro-5-(2-quinolylmethoxy)-(1(2H)-naphthalenone hydrochloride]",
210 nM,"CCCCC1(CCCC)CCc2c(OCc3nc4ccccc4n3C)cccc2C1O (stereo not drawn) [Example 26, 2,2-Dibutyl-5-[2-(1-methylbenzimidazolyl)methoxy]-1,2,3,4-tetrahydro-1-naphthol]",
300 nM,"CCCCC1(CCCC)CCc2c(OCC3=C(C)C(=O)c4ccccc4C3=O)cccc2C1O (stereo not drawn) [Example 27, 2,2-Dibutyl-5-[2-(3-methyl-1,4-naphthalenedionyl)methoxy]-1,2,3,4-tetrahydro-1-naphthol]",
14 nM,"CCCCC1(CCCC)CCc2c(OCc3ccc4ccccc4n3)ccc(Cl)c2C1O (stereo not drawn) [Example 33, 8-chloro-2,2-dibutyl-5-(2-quinolylmethoxy)-1,2,3,4-tetrahydro-1-naphthol]",
2.2 nM,"CCCCC1(CCCC)CCc2c(OCc3ccc4ccccc4n3)ccc(F)c2C1O (stereo not drawn) [Example 34, 2,2-Dibutyl-8-fluoro-5-(2-quinolylmethoxy)-1,2,3,4-tetrahydro-1-naphthol]",
6.5 nM,"CCCCC1(CCCC)CCc2c(OCc3ccc4ccccc4n3)ccc(C)c2C1O (stereo not drawn) [Example 35, 2,2-Dibutyl-8-methyl-5-(2-quinolylmethoxy)-1,2,3,4-tetrahydro-1-naphthol]",
120 nM,"CCCCC1(CCCC)CCc2c(OCc3ccc4ccccc4n3)ccc(O)c2C1O (stereo not drawn) [Example 36, 2,2-Dibutyl-8-hydroxy-5-(2-quinolylmethoxy)-1,2,3,4-tetrahydro-1-naphthol hydrochloride]",
2.5 nM,"CC(C)CC1(CC(C)C)CCc2c(OCc3ccc4ccccc4n3)cccc2C1O (stereo not drawn) [Example 37, 2,2-Diisobutyl-5-(2-quinolylmethoxy)-1,2,3,4-tetrahydro-1-naphthol]",
360 nM,"CCCCC1(CCCC)CCc2c(OCc3ccc4ccccc4n3)ccc(O)c2C1=O [Example 38, 2,2-Dibutyl-3,4-dihydro-8-hydroxy-5-(2-quinolylmethoxy)-1(2H)-naphthalenonehydrochloride]",
640 nM,CCCCC1(CCCC)CCc2c(OCc3ccc4ccccc4n3)ccc(C)c2C1=O [Example 39],
